According to ChEMBL document CHEMBL1134060, “Synthesis and evaluation of hexahydrochrysene and tetrahydrobenzofluorene ligands for the estrogen receptor” (Bioorg Med Chem Lett, 2001):

How the values were obtained:
[1] = molecular target: Estrogen receptor beta (Homo sapiens) (UniProt Q92731); experiment: Relative binding affinity for human Estrogen receptor beta compared to estradiol (E2)
[2] = molecular target: T1, Estrogen receptor (Homo sapiens) (UniProt P03372); experiment: Antagonistic effect on 1 nM estradiol induced transcriptional activation in HEC-1 cells expressing estrogen receptor alpha at 10e-6 M; type: functional, cell-based
T1 sequence (whole entry): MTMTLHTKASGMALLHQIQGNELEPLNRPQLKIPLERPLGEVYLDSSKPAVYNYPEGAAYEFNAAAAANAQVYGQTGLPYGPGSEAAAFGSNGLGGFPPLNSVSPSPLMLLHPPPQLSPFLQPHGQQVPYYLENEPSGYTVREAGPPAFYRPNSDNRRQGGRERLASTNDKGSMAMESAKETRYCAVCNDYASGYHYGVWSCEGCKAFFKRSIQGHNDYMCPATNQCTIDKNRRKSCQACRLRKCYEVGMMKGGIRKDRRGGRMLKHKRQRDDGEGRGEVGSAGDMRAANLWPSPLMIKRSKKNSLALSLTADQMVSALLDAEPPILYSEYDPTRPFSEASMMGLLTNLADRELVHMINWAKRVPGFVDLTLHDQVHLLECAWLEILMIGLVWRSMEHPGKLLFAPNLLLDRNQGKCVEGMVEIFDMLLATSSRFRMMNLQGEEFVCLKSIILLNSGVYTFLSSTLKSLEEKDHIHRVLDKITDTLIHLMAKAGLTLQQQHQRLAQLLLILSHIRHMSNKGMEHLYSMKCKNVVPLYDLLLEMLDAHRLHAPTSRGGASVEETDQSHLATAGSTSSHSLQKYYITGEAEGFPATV

[3] = molecular target: Estrogen receptor beta (Homo sapiens) (UniProt Q92731); experiment: Antagonistic effect on 1 nM estradiol induced transcriptional activation in HEC-1 cells expressing estrogen receptor beta at 10e-7 M; type: functional, cell-based
[4] = molecular target: Estrogen receptor beta (Homo sapiens) (UniProt Q92731); experiment: Antagonistic effect on 1 nM estradiol induced transcriptional activation in HEC-1 cells expressing estrogen receptor beta at 10e-8 M; type: functional, cell-based
[5] = molecular target: Estrogen receptor beta (Homo sapiens) (UniProt Q92731); experiment: Antagonistic effect on 1 nM estradiol induced transcriptional activation in HEC-1 cells expressing estrogen receptor beta at 10e-9 M; type: functional, cell-based
[6] = molecular target: T1, Estrogen receptor (Homo sapiens); experiment: Antagonistic effect on 1 nM estradiol induced transcriptional activation in HEC-1 cells expressing estrogen receptor alpha at 10e-7 M; type: functional, cell-based
[7] = molecular target: Estrogen receptor beta (Homo sapiens) (UniProt Q92731); experiment: Transcriptional activation in human endometrial carcinoma (HEC-1) cells expressing estrogen receptor beta at 10e-6 M; type: functional
[8] = molecular target: Estrogen receptor beta (Homo sapiens) (UniProt Q92731); experiment: Transcriptional activation in human endometrial carcinoma (HEC-1) cells expressing estrogen receptor beta at 10e-9 M; type: functional
[9] = molecular target: Estrogen receptor beta (Homo sapiens) (UniProt Q92731); experiment: Antagonistic effect on 1 nM estradiol induced transcriptional activation in HEC-1 cells expressing estrogen receptor beta at 10e-6 M; type: functional, cell-based

Chain of Estrogen receptor beta (Homo sapiens) (Q92731 whole entry): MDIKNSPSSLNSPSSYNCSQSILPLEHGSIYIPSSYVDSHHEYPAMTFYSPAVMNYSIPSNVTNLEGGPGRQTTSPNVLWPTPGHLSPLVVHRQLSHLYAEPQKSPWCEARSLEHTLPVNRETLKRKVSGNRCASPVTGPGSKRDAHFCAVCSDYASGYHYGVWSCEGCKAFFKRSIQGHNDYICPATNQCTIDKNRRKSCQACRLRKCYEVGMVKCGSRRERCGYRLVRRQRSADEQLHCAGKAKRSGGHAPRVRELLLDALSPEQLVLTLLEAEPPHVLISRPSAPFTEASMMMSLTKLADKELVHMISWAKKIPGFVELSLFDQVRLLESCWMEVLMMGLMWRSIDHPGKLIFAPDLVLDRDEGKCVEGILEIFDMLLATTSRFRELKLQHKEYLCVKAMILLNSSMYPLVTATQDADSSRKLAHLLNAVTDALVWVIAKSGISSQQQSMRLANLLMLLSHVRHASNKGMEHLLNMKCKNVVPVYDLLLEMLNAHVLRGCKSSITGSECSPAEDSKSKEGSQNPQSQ

| RBA [1] | Compound | further results |
| --- | --- | --- |
| 144% | CC[C@@H]1Cc2cc(O)ccc2C2=C1c1ccc(O)cc1C[C@H]2CC | – |
| 0.06% | Oc1ccc2c(c1)CC[C@@H]1c3ccc(O)cc3C[C@H](c3ccc(OCCN4CCCCC4)cc3)[C@H]21 | Response [2]: 25%; Response [3]: 104%; Response [4]: 105%; Response [5]: 5% |
| 2% | O=C1c2cc(O)ccc2[C@H]2CCc3cc(O)ccc3[C@@H]12 | – |
| 280% | CCC1c2cc(O)ccc2[C@H]2CCc3cc(O)ccc3[C@@H]12 (stereo in doubt; 17b) | – |
| 63% | Oc1ccc2c(c1)C[C@@H]1c3ccc(O)cc3CC[C@H]21 | – |
| 6.5% | Oc1ccc2c(c1)CCC1=C2CCc2cc(O)ccc21 | – |
| 300% | CCC1c2cc(O)ccc2[C@H]2CCc3cc(O)ccc3[C@@H]12 (stereo in doubt; 17a) | – |
| 16% | CCC1Cc2cc(O)ccc2C2C(CC)Cc3cc(O)ccc3C12 (stereo unspecified) | – |
| 10% | Oc1ccc2c(c1)CC[C@@H]1c3ccc(O)cc3[C@H](c3ccc(OCCN4CCCCC4)cc3)[C@H]21 | Response [6]: 10%; Response [7]: 5%; Response [8]: 70%; Response [9]: 5%; Response [3]: 15%; Response [4]: 30% |
| 130% | Oc1ccc2c(c1)CC[C@H]1c3ccc(O)cc3CC[C@@H]21 | – |
| 71% | Oc1ccc2c(c1)CC[C@@H]1c3ccc(O)cc3CC[C@H]21 | – |
